Data as given in patent US20240245677A1, “SELECTED COMPOUNDS FOR TARGETED DEGRADATION OF BRD9” (C4 THERAPEUTICS, INC., priority 2021, published 2024).

Experiments:
[1] = Variable temperature XRPD (VT-XRPD) experiments; assay type: physicochemical
Method: To investigate form conversion behavior, variable temperature XRPD experiments were conducted for hydrate Pattern A, hydrate Pattern C, hydrate Pattern F and hetero-solvate Pattern L.
Based on DSC and TGA results, variable temperature XRPD was conducted for Pattern A, at different temperatures, including 25° C., 110° C. and 25° C.
Based on DSC and TGA results, variable temperature XRPD was conducted for Pattern B, at different temperatures, including 25° C., 80° C., 130° C. and 25° C. The sample after heating-cooling was placed at 25° C./75% RH condition for 1 day and investigated by XRPD.
Based on DSC and TGA results, variable temperature XRPD was conducted for Pattern C, at different temperatures, including 25° C., 110° C. and 25° C.
Based on DSC and TGA results, variable temperature XRPD was conducted for Pattern F at different temperatures, including 25° C., 110° C. and 25° C. The sample after heating-cooling was placed at 25° C./75% RH condition for 1 day and investigated by XRPD.
Based on DSC and TGA results, variable temperature XRPD was conducted for Pattern L, at different temperatures, including 25° C., 100° C., 140° C., 180° C. and 25° C. The sample after heating-cooling was placed at 25° C./92% RH condition for 24 h and investigated by XRPD.

IKZF1 = molecular target: T1, IKZF1 (Homo sapiens, UniProt Q13422+Q96SW2); assay: IKZF1 HiBiT degradation assay in NCIH929.11 cells; assay type: cell-based
T1 construct: CRISPR-edited to endogenously express HiBiT tagged IKZF1; host or cells: NCIH929.11
T1 sequence (Q13422 whole entry): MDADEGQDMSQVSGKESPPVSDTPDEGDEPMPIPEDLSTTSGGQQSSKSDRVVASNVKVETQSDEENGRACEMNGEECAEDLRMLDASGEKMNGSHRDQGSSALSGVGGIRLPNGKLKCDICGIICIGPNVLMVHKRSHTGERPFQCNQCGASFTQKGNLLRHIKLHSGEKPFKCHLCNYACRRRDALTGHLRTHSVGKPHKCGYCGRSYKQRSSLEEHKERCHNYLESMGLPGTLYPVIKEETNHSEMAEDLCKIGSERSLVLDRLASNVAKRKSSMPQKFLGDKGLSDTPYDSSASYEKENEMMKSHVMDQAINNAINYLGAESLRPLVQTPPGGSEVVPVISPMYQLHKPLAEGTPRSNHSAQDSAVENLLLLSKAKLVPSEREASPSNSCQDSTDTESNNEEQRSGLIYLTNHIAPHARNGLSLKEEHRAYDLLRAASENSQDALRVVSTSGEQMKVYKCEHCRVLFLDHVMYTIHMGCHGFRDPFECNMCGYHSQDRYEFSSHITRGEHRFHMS
T1 sequence (Q96SW2 whole entry): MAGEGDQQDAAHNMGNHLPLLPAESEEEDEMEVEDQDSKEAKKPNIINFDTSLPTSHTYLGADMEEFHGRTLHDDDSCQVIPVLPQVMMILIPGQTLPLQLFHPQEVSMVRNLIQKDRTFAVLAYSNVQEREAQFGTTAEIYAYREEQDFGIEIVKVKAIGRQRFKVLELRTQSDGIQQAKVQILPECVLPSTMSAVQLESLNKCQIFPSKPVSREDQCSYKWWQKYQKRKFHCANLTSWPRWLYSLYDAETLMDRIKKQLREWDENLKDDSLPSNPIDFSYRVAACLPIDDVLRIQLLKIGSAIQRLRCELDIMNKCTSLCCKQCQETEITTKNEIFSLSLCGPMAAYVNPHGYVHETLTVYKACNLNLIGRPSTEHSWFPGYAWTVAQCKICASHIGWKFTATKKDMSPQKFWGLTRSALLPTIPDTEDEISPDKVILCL
T1 sequence (Q16531 2-1140 partner limits assumed): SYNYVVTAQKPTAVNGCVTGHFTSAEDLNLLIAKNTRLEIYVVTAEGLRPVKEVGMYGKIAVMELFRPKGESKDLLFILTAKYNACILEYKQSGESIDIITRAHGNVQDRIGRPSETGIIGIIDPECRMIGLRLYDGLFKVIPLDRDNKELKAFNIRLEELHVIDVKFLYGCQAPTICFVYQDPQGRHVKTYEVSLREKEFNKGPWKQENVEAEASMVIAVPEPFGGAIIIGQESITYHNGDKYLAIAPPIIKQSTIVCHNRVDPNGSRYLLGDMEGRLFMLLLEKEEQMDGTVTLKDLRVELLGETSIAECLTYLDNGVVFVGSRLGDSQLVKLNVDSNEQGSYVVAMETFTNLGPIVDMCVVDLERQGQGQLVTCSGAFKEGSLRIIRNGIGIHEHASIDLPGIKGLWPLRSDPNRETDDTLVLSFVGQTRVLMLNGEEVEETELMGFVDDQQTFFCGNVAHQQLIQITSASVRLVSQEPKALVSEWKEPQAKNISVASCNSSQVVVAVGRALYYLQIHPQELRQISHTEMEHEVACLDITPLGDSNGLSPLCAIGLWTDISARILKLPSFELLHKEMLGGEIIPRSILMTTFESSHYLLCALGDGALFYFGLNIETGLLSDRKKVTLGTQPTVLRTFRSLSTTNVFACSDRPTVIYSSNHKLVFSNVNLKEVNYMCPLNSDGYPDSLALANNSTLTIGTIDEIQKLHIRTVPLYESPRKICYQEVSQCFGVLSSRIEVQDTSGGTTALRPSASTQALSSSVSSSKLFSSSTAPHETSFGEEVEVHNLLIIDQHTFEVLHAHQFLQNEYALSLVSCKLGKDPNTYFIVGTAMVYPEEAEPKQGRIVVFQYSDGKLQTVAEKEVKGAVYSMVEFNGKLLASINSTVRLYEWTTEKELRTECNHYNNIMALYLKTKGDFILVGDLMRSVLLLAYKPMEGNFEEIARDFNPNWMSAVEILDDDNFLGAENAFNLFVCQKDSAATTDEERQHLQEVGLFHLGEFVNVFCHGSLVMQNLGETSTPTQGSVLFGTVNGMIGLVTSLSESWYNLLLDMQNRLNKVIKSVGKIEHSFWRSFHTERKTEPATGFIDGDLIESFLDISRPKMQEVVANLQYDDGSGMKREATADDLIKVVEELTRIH

SALL4 = molecular target: T2, SALL4 (Homo sapiens, UniProt Q96SW2+Q9UJQ4); assay: SALL4 HiBiT degradation assay in KELLY.2 cells; assay type: cell-based; conditions: read-out: Mean Emax (%) ± SD
T2 construct: CRISPR-edited to endogenously express HiBiT tagged SALL4; host or cells: KELLY.2
T2 sequence (Q9UJQ4 whole entry): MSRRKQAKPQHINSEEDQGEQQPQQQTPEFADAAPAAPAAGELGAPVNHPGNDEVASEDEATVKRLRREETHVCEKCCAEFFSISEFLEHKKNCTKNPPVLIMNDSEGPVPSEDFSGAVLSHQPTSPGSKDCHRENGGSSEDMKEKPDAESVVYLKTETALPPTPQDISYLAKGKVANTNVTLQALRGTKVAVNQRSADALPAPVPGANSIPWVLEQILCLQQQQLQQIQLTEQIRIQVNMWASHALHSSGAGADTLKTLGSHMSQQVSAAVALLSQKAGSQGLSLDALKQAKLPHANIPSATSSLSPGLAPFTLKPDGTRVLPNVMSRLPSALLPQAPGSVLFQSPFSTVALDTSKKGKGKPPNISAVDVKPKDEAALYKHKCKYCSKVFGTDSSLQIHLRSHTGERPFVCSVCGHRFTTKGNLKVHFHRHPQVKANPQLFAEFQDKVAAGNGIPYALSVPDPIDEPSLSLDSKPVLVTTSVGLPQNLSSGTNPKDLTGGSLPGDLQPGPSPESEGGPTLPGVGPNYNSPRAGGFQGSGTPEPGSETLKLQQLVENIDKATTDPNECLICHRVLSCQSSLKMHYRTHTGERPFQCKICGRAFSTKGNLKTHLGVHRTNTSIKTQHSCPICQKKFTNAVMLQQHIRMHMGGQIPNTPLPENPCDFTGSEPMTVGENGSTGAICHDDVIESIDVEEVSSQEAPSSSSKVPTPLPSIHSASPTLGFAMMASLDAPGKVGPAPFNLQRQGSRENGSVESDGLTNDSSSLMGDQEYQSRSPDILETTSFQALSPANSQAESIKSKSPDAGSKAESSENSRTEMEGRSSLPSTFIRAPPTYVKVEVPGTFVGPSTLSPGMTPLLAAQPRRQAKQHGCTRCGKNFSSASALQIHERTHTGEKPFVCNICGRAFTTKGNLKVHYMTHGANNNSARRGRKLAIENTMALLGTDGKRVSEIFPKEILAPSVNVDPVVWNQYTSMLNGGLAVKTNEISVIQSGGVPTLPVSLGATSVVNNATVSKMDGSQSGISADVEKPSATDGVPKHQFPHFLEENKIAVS
T2 sequence (Q96SW2 whole entry): as the sequence (Q96SW2 whole entry) above
T2 sequence (Q16531 2-1140 partner limits assumed): as the sequence (Q16531 2-1140 partner limits assumed) above
From the text: Nano-Glo® HiBiT Lytic Assay System was purchased from Promega (Catalog No. N3050, Madison, WI, USA). […] The HiBiT polypeptide tag was introduced into the C-terminus of the endogenous SALL4 locus by CRISPR-Cas9 to produce the modified KELLY.2 cell line. The HiBiT polypeptide allows reconstitution of NanoBiT enzyme following cell lysis and addition of the complementing LgBiT polypeptide that activates substrate to produce a luminescent signal that is directly proportional to the amount of HiBiT-tagged SALL4.
KELLY.2 cells were routinely sub-cultured to maintain cell density between 30-80% confluence, not to exceed 10 passages. Cells were washed with PBS, trypsinized for 5 minutes at 37° C., and resuspended in fresh growth media without phenol red. […] Cell concentration was adjusted with growth media without phenol red to 2×10^5 cells/mL.
30 nL DMSO was transferred to all control wells.
30 μL of media was dispensed to column 24 as background positive control (P). Plates were spun briefly at 1000 rpm and cells were incubated at 37° C., 5% CO2 for 6 hours. Final concentration of DMSO was 0.1% for all samples.
Cellular SALL4 protein level was determined based on quantification of HiBiT using Nano-Glo® HiBiT Lytic Assay System (Promega). […] Cells treated in the absence of the test compound (0.1% DMSO vehicle) were the negative control (N) and wells containing only media were the positive control (P).
Percent response of compound-treated samples (T) were calculated by normalizing to the DMSO treated negative (N) controls on the same microtiter plate after background (i.e., positive control) signal subtraction:
Curve fit and DC50 (concentration that degrades 50% SALL4) determination was performed by 4 parametric logistic fit analysis using software such as GraphPad Prism software (GraphPad Software, LLC, San Diego, CA, USA). The fit was performed through minimization of the root mean squared error between observed and calculated values of the four-parameter logistic equation using the simplex optimizer of the Apache Commons Math library. […] DC50 values were computed as the concentrations where the fitted curves cross the 50% response level. Averages and standard deviations were computed from replicates of the experiment.

degradation of IKZF1 induced (IKZF1; positive control, 6 hours)	Emax (IKZF1; read-out: Mean Emax (%) ± SD)	Emax (SALL4)	SMILES	XRPD ([1]; 25° C. (start))	XRPD ([1]; 25° C./50% RH hold 2 h)	XRPD ([1]; Cool to 25° C.)	XRPD ([1]; Heat to 110° C.)	XRPD ([1]; 25° C./92.5% RH hold 1 day)	XRPD ([1]; Heat to 100° C.)
–	–	–	COc1cc(-c2cn(C)c(=O)c(C)c2C)cc(OC)c1CN1CC[C@H](N2CCN(c3ccc(N[C@H]4CCC(=O)NC4=O)cc3F)CC2)C(F)(F)C1 [Pattern C]	Pattern C	Pattern C	Metastable Pattern I	Metastable Pattern I	–	–
–	–	–	COc1cc(-c2cn(C)c(=O)c(C)c2C)cc(OC)c1CN1CC[C@H](N2CCN(c3ccc(N[C@H]4CCC(=O)NC4=O)cc3F)CC2)C(F)(F)C1 [Pattern F]	Pattern F	–	Pattern H	Pattern H	–	–
–	–	–	COc1cc(-c2cn(C)c(=O)c(C)c2C)cc(OC)c1CN1CC[C@H](N2CCN(c3ccc(N[C@H]4CCC(=O)NC4=O)cc3F)CC2)C(F)(F)C1 [Pattern L]	Pattern L	–	Pattern M	–	Pattern M	Pattern L
8000	20.8 ± 3.2%	9.5 ± 1.5%	Nc1cccc2c1C(=O)N(C1CCC(=O)NC1=O)C2=O (centres unmarked) [Pomalidomide, reference compound]	–	–	–	–	–	–
